Test results reported in PubChem BioAssay (NCI).
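In this assay, cells in 96-well plates receive the compound at five concentrations for 48 hours. Endpoints are linearly interpolated between the surrounding concentrations. GI50 is the concentration that inhibits growth by half. At the TGI there is no net growth.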

Tests used:
Assay in all cases: inhibition of tumour cell growth, NCI panel, 48 h
[1] = tested on: NCI-H522 lung
[2] = tested on: K-562 leukemia
[3] = tested on: SN12C renal
[4] = tested on: M14 melanoma
[5] = tested on: HS 578T breast
[6] = tested on: NCI/ADR-RES ovarian
[7] = tested on: UACC-257 melanoma
[8] = tested on: MDA-MB-231 breast
[9] = tested on: PC-3 prostate
[10] = tested on: SF-268 CNS

| Structure (SMILES) | GI50 [1] | TGI [1] | GI50 [2] | TGI [2] | GI50 [3] | TGI [3] | GI50 [4] | TGI [4] | GI50 [5] | TGI [5] | GI50 [6] | TGI [6] | GI50 [7] | TGI [7] | GI50 [8] | TGI [8] | GI50 [9] | TGI [9] | GI50 [10] | TGI [10] |
| --- | --- | --- | --- | --- | --- | --- | --- | --- | --- | --- | --- | --- | --- | --- | --- | --- | --- | --- | --- | --- |
| O=C(O)CN(CCN(CC(=O)O)CC(=O)O)CC(=O)O.[Cu+2].[Na+] | > 100 µM | > 100 µM | > 100 µM | > 100 µM | > 100 µM | > 100 µM | > 100 µM | > 100 µM | > 100 µM | > 100 µM | > 100 µM | > 100 µM | > 100 µM | > 100 µM | > 100 µM | > 100 µM | > 100 µM | > 100 µM | > 100 µM | > 100 µM |
| N#Cc1ccc2c(-c3ccnc(NC4CC4)n3)c(-c3ccc(F)cc3)nn2c1 | > 25 µM | > 25 µM | > 25 µM | > 25 µM | > 25 µM | > 25 µM | > 25 µM | > 25 µM | > 25 µM | > 25 µM | > 25 µM | > 25 µM | > 25 µM | > 25 µM | > 25 µM | > 25 µM | > 25 µM | > 25 µM | > 25 µM | > 25 µM |
| CCOC(=O)c1c(CN2CCCCC2)nc2ccc(Cl)cc2c1-c1ccccc1 | 19.2 µM | 53 µM | 25.6 µM | 92.7 µM | 20.3 µM | 45 µM | 24.6 µM | 72.7 µM | 27.1 µM | 75.1 µM | 19.6 µM | 58.2 µM | 22.4 µM | 56.5 µM | 15.9 µM | 35 µM | 23.8 µM | 93.7 µM | 23.2 µM | 55.3 µM |
| COc1ccccc1NC(=O)c1sc2ncn(CCOc3ccccc3)c(=O)c2c1C | 1.8 µM | > 50 µM | 0.761 µM | 4.39 µM | 17.2 µM | > 50 µM | 3.54 µM | > 50 µM | 1.37 µM | 4.1 µM | 1.76 µM | > 50 µM | 1.49 µM | > 50 µM | 2.61 µM | > 50 µM | > 50 µM | > 50 µM | 3.2 µM | > 50 µM |
